Several values for one entry are separate records, joined by “and”; a condition that tells them apart may be missing. Equal values may be shown once.
Tests used:
[1] = tested on: Neonatal human dermal fibroblasts; assay: Collagen synthesis (secreted procollagen 1 immunoassay); assay type: cell-based; conditions: 0.2 to 20 mM, 48 hours, serum-free medium
Procedure: Neonatal human dermal fibroblasts were purchased from Clonetics Corp., San Diego, Calif. All materials for cell culture were purchased from Life Technologies, N.Y. Cells were maintained in DMEM with 10% fetal bovine serum and used in passages 5-10, Confluent 96-well plates containing fibroblasts were treated with test materials (0.2 to 20 mM) in serum-free medium for 48 hours. […] This was carried out in a BioDot SF apparatus according to the manufacturer's instructions (BioRad Labs, CA) and the blot was developed using a Vectastain Kit (PK6104, Vector Labs, CA) as per the manufacturer's directions. Color intensity was quantitated using an Ultroscan XL densitometer (Pharmacia LKB). Fold increase was calculated as (density of treated)/untreated.

[2] = tested on: Normal human epidermal keratinocytes (NHEK); assay: Keratinocyte proliferation (DNA content, fluorometric); assay type: cell-based
Procedure: Normal human epidermal keratinocytes (NHEK) derived from neonatal foreskin were used for all experiments. Media were purchased from Clonetics Corp., San Diego, Calif. Cell stocks frozen in passage 2 were grown in Keratinocyte Growth Medium (KGM) and passaged when 70-80% confluent. Cells were seeded in 96 well plates (Corning) at a density of 7500 cells/well in KGM. After 24 hours, cells were rinsed and dosed with test compounds in 200 μl of Keratinocyte Basal Medium (KBM). Plates were incubated for three days at 37° C., 5% CO2. Cell proliferation was estimated by assaying for DNA content by a fluorometric method described by Rago et al. (Analytical Biochemistry, 191:31-34, 1990). Medium was removed and cells were rinsed with phosphate buffered saline solution. 100 μl of sterile distilled water was added to each well and plates were frozen at -70° C. for one and a half hours. Plates were thawed for one hour at which time 100 μl of a 20 ug/ml solution of Bisbenzimide H33258 fluorochrome (Calbiochem Corp., La Jolla, Calif.) was added to each well. The fluorochrome was prepared just prior to use in 10 mM Tris, 1 mM EDTA, 4M NaCl, pH 7.4. Plates were read in a Millipore Cytofluor fluorescent plate reader to quantify DNA (excitation 360 nm, emission 460 nm). Percent increase over control was calculated from blank-corrected readings as (treated-untreated)/(untreated)*100%.

- Maximum fold over Control (collagen synthesis) [1]: 1.4 fold
SMILES: NC(=O)C(=O)O [Oxamate]
- activation at 25 µM ([2]; Homo sapiens, NHEK, 72 h, Table 3, oxamate 0.025 mM, read-out: % Increase Over Control (keratinocyte proliferation)): 20%
- activation at 313 µM ([2]; Homo sapiens, NHEK, 72 h, Table 3, oxamate 0.313 mM, read-out: % Increase Over Control (keratinocyte proliferation)): 18%
- activation at 1250 µM ([2]; Homo sapiens, NHEK, 72 h, Table 3, oxamate 1.25 mM, read-out: % Increase Over Control (keratinocyte proliferation)): 28%
- activation at 20000 µM ([2]; Homo sapiens, NHEK, 72 h, Table 3, oxamate 20 mM, read-out: % Increase Over Control (keratinocyte proliferation)): 0%
- % Increase Over Control (keratinocyte proliferation) ([2]; Table 3, oxamate 0.025 mM): 19%
- % Increase Over Control (keratinocyte proliferation) ([2]; Table 3, oxamate 0.313 mM): 32%
- % Increase Over Control (keratinocyte proliferation) ([2]; Table 3, oxamate 1.25 mM): 24% and 40%
- % Increase Over Control ([2]; Table 11, oxamate 2.5 mM, pyruvate 0): 0%
- % Increase Over Control ([2]; Table 11, oxamate 5.0 mM, pyruvate 0): 0%
- % Increase Over Control ([2]; Table 11, oxamate 10 mM, pyruvate 0): 0%
- % Increase Over Control ([2]; Table 11, oxamate 15 mM, pyruvate 0): 0%
- % Increase Over Control ([2]; Table 11, oxamate 20 mM, pyruvate 0): 0%
- % Increase Over Control ([2]; Table 12, oxamate 0.313 mM, malate 0): 32%
- % Increase Over Control ([2]; Table 12, oxamate 0.625 mM, malate 0): 19%
- % Increase Over Control ([2]; Table 12, oxamate 1.25 mM, malate 0): 40%
- % Increase Over Control ([2]; Table 12, oxamate 2.5 mM, malate 0): 25%
- % Increase Over Control ([2]; Table 12, oxamate 5.0 mM, malate 0): 20%
- % Increase Over Control ([2]; Table 12, oxamate 10 mM, malate 0): 0%

— patent US5853742A, “Cosmetic compositions containing lactate dehydrogenase inhibitors” (priority 1997, dated 1998)
